In patent US11963966B2, “Compositions and methods for treating ovarian tumors” (Dana-Farber Cancer Institute, Inc., priority 2017, dated 2024):

How the values were obtained:
[1] = tested on: OVACR8; assay: Screen of 14 JAK/STAT pathway inhibitors, CellTiterGlo viability, 2D and 3D cultures; format: cell-based; settings: OVACR8, 1 μM, 2D and 3D culture
Method: FIG. 6A-FIG. 6G are a series of graphs and images depicting the impact of JAK/STAT-inhibition on spheroid formation, invasion and killing ex vivo and in vitro. FIG. 6A a histogram (FIG. 11B), showing drug screening with 14 compounds (at 1 μM) inhibiting the JAK/STAT pathway in OVACR4. Relative viability compared to DMSO control measured by CTG. […] The same library was screened in 2D-cultures of OVACR4 (FIG. 11A), and 2D-cultures of OVACR8 (FIG. 11C) and 3D-cultures of OVACR8 (FIG. 11D). FIG. 6B is a series of plots showing drug sensitivity testing using the GILA assay in platinum-resistant ex vivo spheroid cultures of patients DF3291 and DF3266, The X-axis indicates the log μM concentration of drugs indicated in the legend, Y-axis indicates the percentage of luminescence signal as indicator for viability relatively to DMSO treated cells. In both patients, half maximal effective concentration (EC50) were ˜100 nM and ˜10 nM, respectively, while other drugs routinely used for the treatment of (platinum-resistant) ovarian cancer had EC50>10 μM. […] 20 spheroids clusters were analyzed for each iteration. […]
FIG. 11A-FIG. 11E are a series of histograms of OVACR4 and OVACR8 ovarian cancer cell lines grown in 2D and 3D cultures and treated with 14 JAK/STAT pathway inhibitors at 1 μM. Vability of the cells was determined using the CellTiterGlo assay. […]

[2] = tested on: STAT3 activity in Heya8 cells; assay: STAT3-dependent luciferase assay after oncostatin M (OSM) stimulation; format: cell-based; settings: Heya8 cells pre-treated 1 hour vs DMSO, then OSM stimulation
[3] = tested on: established ovarian cancer cell lines (OVCAR4, OVCAR8, OVASHO, TYKNU, Kuramachi); assay: Spheroid formation in low adherent surface culture; format: cell-based
Method: FIG. 6A-FIG. 6G are a series of graphs and images depicting the impact of JAK/STAT-inhibition on spheroid formation, invasion and killing ex vivo and in vitro. FIG. 6A a histogram (FIG. 11B), showing drug screening with 14 compounds (at 1 μM) inhibiting the JAK/STAT pathway in OVACR4. Relative viability compared to DMSO control measured by CTG. […] The same library was screened in 2D-cultures of OVACR4 (FIG. 11A), and 2D-cultures of OVACR8 (FIG. 11C) and 3D-cultures of OVACR8 (FIG. 11D). FIG. 6B is a series of plots showing drug sensitivity testing using the GILA assay in platinum-resistant ex vivo spheroid cultures of patients DF3291 and DF3266, The X-axis indicates the log μM concentration of drugs indicated in the legend, Y-axis indicates the percentage of luminescence signal as indicator for viability relatively to DMSO treated cells. In both patients, half maximal effective concentration (EC50) were ˜100 nM and ˜10 nM, respectively, while other drugs routinely used for the treatment of (platinum-resistant) ovarian cancer had EC50>10 μM. FIG. 6C is a series of images of microscopic analysis of spheroids with different drug treatments to highlight the morphologic changes during therapy with drugs listed. Inhibition of JAK/STAT pathway disrupts ex vivo spheroid cultures. […] The X-axis indicates established ovarian cancer cell line ID. Y-axis indicates the relative number of formed spheroids when treated with either JSI-124 or carboplatin compared to untreated parental controls. Error bars indicate the standard deviation from the mean number of spheroids. […] JAK/STAT inhibition prevents spheroid formation. […] The Y-axis indicates the clearance ability (using arbitrary units). 20 spheroids clusters were analyzed for each iteration. Data is shown as mean (horizontal bar), interquartile range (box), and minimum and maximum (whiskers). Statistical analysis was performed using 1-way analysis of variance (ANOVA) and post hoc Tukey-Kramer **P<0.05. […] FIG. 6G is a histogram showing the inhibition of the JAK/STAT pathway. […]

[4] = Adverse effects in JSI-124 treated PDX mice; format: in vivo; settings: IP JSI-124 treated PDX mice
Description: A frequently used treatment modality for advanced ovarian cancer is the intraperitoneal administration of chemotherapy, such as cisplatin, which has local effects, but is also systemically reabsorbed to treat potential metastatic disease. […] Tumor growth was compared following IP JSI-124 treatment v. vehicle.

With `CC(C)(O)/C=C/C(=O)[C@](C)(O)[C@H]1[C@@H](O)C[C@@]2(C)[C@@H]3CC=C4[C@H](C=C(O)C(=O)C4(C)C)[C@]3(C)C(=O)C[C@]12C` [JSI-124, cucurbitacin I] the “Viability (CellTiterGlo), cell killing” value [1] was “most effective compound leading to cell killing”, the STAT3-dependent luciferase activity [2] was “significant reduction in STAT-dependent expression” and the “Number of spheroids vs DMSO control” value ([3]; Kuramachi) was “significantly reduced the number of spheroids”. The “Formation of spheroids vs DMSO control” value ([3]; OVCAR4, OVCAR8, OVASHO, TYKNU) was “completely abrogated the formation of spheroids” and the “Adverse effect (body weight, ascites/edema)” value [4] was “increased weight due to increased non-malignant ascites”.
